In patent publication US7220730B2, “Cancer specific radiolabeled conjugates regulated by the cell cycle for the treatment and diagnosis of cancer” (Board of Regents of the University of Nebraska, priority 2003, dated 2007):

Assays:
[1] = target: T1, sex hormone binding globulin (SHBG) (Homo sapiens, UniProt P04278); experiment: Binding of 5′-MP-^125IUdR-3′-DHT to sex hormone binding globulin (charcoal-dextran, size-exclusion HPLC); details: FIG. 3
T1 sequence (P04278 30-402): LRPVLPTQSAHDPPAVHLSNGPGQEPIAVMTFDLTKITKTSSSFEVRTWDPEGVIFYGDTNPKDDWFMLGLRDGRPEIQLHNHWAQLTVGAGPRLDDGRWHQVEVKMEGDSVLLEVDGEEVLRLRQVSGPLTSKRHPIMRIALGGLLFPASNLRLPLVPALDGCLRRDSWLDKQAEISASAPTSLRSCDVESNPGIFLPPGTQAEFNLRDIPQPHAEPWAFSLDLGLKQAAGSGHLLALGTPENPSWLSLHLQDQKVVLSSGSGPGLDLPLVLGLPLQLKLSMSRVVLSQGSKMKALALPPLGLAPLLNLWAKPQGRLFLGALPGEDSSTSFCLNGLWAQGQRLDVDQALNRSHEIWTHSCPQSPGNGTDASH
Method: The tubes were then vortexed for about 30 seconds and incubated for 10 minutes in a water bath at 37° C. The samples were then incubated at 0–4° C. for 3 hours. 0.1 mL aliquots were removed from the samples and counted in a gamma counter. To each tube, 0.4 mL of ice-cold charcoal-dextran solution was added and the tubes were incubated on ice for 15 minutes. The samples were then centrifuged at 4° C. for 20 minutes at 1,000 rpm. 0.5 ml aliquots were taken for gamma-counting and the residue was also counted. Selected samples were analyzed by size-exclusion HPLC (tandem TSK2000 and TSK3000 size exclusion columns (TosoHaas; Montgomeryville, Pa.) with a guard column using PBS, pH7.2 as the eluant).

[2] = Hydrophobicity / aqueous solubility of the conjugates (descriptive); type: physicochemical
[3] = test system: intraperitoneal OVCAR-3 tumors; experiment: Efficacy against intraperitoneal OVCAR-3 tumors after 6 fractionated doses; type: in vivo, athymic mice; details: 0.1 mCi/dose/mouse
From the text: (§1) With regard to ^125IUdR-3′-DHT, the biodistribution of the reagent (0.001–0.010 mCi/mouse; […]) in athymic mice bearing AR-expressing OVCAR-3 tumors is seen in Table 3. Additionally, the efficacy of the reagent against the intraperitoneal OVCAR-3 tumors after 6 fractionated doses (0.1 mCi/dose/mouse; […]) is seen in Table 4.

[4] = test system: OVCAR-3 cells; experiment: Binding of ^125IUdR-DHT to OVCAR-3 cells in vitro (Scatchard plot, with/without excess cold DHT)
Method: To generate a Scatchard plot for the binding of ^125IUdR-DHT to OVCAR-3 cells, OVCAR-3 cells were thawed from a stock or freshly harvested by a lavage of the peritoneal cavity of athymic mice bearing intraperitoneal ascites OVCAR-3 tumors. The cells were twice washed with full media (RPMI 1640 medium with 2 mM L-glutamine adjusted to contain 1.5 g/L sodium bicarbonate, 4.5 g/L glucose, 10 mM HEPES, and 1.0 mM sodium pyruvate and supplemented with 0.01 mg/ml bovine insulin, 80%; fetal bovine serum, 20%). The cells were spun at 450 rpm for 10 minutes to collect a cell pellet and were then resuspended in full media to achieve approximately 5×10^6 cells/mL. The cells were counted and their viability was determined by Trypan Blue staining. “Cold” dihydrotestosterone (DHT) was dissolved in 95% ethanol to create a stock solution of 5 μg/mL. Similarly, 95% ethanol was added to ^125IUdR-DHT to produce 250,000 cpm/100 μL.
The tubes were capped and gently vortexed. The “total applied” counts were then determined in a gamma counter. […] A known volume of the supernatant from the centrifugation was transfered to new plastic tubes and counted in a gamma counter to determine the “free” counts. The cell pellet with the remainder of the supernatant was then counted in the gamma counter. “Bound” counts were then determined by subtracting counts associated with the supernatant from the remaining counts.

[5] = test system: OVCAR-3 cells; experiment: Stability of ^125IUdR-DHT in growth medium in the presence or absence of OVCAR-3 cells (TLC); type: in vitro ADME
Method: OVCAR-3 cells in full growth medium (RPMI 1640 medium with 2 mM L-glutamine adjusted to contain 1.5 g/L sodium bicarbonate, 4.5 g/L glucose, 10 mM HEPES, and 1.0 mM sodium pyruvate and supplemented with 0.01 mg/ml bovine insulin, 80%; fetal bovine serum, 20%) at 1×10^6 cells per flask were plated onto three Petri dishes and allowed to attach for 24 hours. As a control, one dish without cells was subjected to the same treatments. After 24 hours, the cells were trypsinized from one dish to determine cell number and viability. The media was then aspirated from the remaining dishes, including the control, and replaced with 1 mL of fresh media. 0.1 mCi of ^125IUdR-DHT in 0.10 mL of ethanol was added to all of the dishes. The dishes were incubated at 37° C. At 0, 5, 15, 30, 60, 120, 180, and 240 minutes, 10 μL of media was removed from each of the dishes of which 2 μL was added to a silica gel TLC plate. Additionally, 2 μL was added to glass gamma counter tubes as standards. The TLC plates were run with a 3:1 mixture of ethyl acetate and hexane (v/v). When the solvent front approached the end of the plate, the plate was removed from the solvent, dried, and cut into strips. The standards and the strips were then counted. The percent recovered ^125IUdR-DHT was calculated as a ratio of the intact ^125IUdR-DHT at a given timepoint divided by the intact ^125IUdR-DHT at the 0 minute timepoint (see FIG. 2A). Similar calculations were used to determine the kinetics of the appearance of ^125IUdR in the medium, which was determined to occur at a rate of 8.5%/hour (FIG. 2B). This rate is in comparison to the disappearance of ^125IUdR-DHT from the media at a rate of 16%/hour. […] The inclusion of a negatively-charged monophosphate assists in the retention of these compounds in the cell.
This allows at least a partial retention of the negatively charged succinate inside the cell where the next hydrolytic step frees ^125IUdR to be taken up by DNA.

[6] = Biodistribution in athymic mice bearing AR-expressing OVCAR-3 tumors; type: in vivo
From the text: as §1

[7] = OVCAR-3 cells, full growth medium, 37° C.

For CC12CCC(=O)CC1CCC1C2CCC2(C)C(OC(=O)CCC(=O)OC3CC(n4cc([125I])c(=O)[nH]c4=O)OC3COP(=O)(O)O)CCC12 (stereo not shown) [5′-MP-^125IUdR-3′-DHT, 5′-monophosphate-^125IUdR-3′-succinyl-DHT], the “binding to SHBG” value [1] was “specifically bound” and the “competition of SHBG binding by “cold” DHT” value [1] was “competed away”.
In the case of CC12CCC(=O)CC1CCC1C2CCC2(C)C(OP(=O)(OCC3OC(n4cc([125I])c(=O)[nH]c4=O)CC3O)OC3CCC4C5CCC6CC(=O)CCC6(C)C5CCC34C)CCC12 (stereo not shown) [Conjugate 5, 5′-[^125I]iodo-2′-deoxy-5′-monphosphate-O-(bis-dihydrotestosterone)], the “hydrophilicity / hydrophobicity relative to the other conjugates” value [2] is reported as “most hydrophobic”.
In the case of CC12CCC(=O)CC1CCC1C2CCC2(C)C(OC(=O)CCC(=O)OC3CC(n4cc([125I])c(=O)[nH]c4=O)OC3CO)CCC12 (stereo not shown) [^125IUdR-DHT, ^125IUdR-3′-succinyl-DHT], the median tumor size [3] is reported as 0.244 g, the “range (tumor size)” value [3] is reported as 0.012 to 0.781 g and the mean tumor burden ([3]; average (n = 10) and standard deviation) is reported as 0.304 ± 0.320 g. The “binding to OVCAR-3 cells (Scatchard)” value ([4]; 5 × 10^6 cells, 0–4° C., 14–16 hours) was “single type of binding sites with a high affinity”, the “competition by excess DHT for binding” value ([4]; excess “cold” DHT) was “due to the DHT portion of the drug” and the “rate of appearance of ^125IUdR in the medium” value [5, 7] was 8.5 %/hour. The “rate of disappearance of ^125IUdR-DHT from the media” value [5, 7] was 16 %/hour, the “emergence of “free” ^125IUdR in the growth medium” value ([5]; presence or absence of OVCAR-3 cells) was “requires interaction of the drugs with specific cells” and the “Percent injected dose per gram tissue” value ([6]; Blood, 1.5 h, average of n = 10) was 29.61 Percent injected dose per gram tissue. The “Percent injected dose per gram tissue” value ([6]; Blood, 24 h, average of n = 10) was 0.25 Percent injected dose per gram tissue, the “Percent injected dose per gram tissue” value ([6]; Blood, 48 h, average of n = 10) was 0.30 Percent injected dose per gram tissue and the “Percent injected dose per gram tissue” value ([6]; Blood, 72 h, average of n = 10) was 0.17 Percent injected dose per gram tissue. The “Percent injected dose per gram tissue” value ([6]; Brain, 1.5 h) was 1.91 Percent injected dose per gram tissue, the “Percent injected dose per gram tissue” value ([6]; Brain, 24 h) was 0.03 Percent injected dose per gram tissue and the “Percent injected dose per gram tissue” value ([6]; Brain, 48 h) was 0.05 Percent injected dose per gram tissue. For the same molecule, the “Percent injected dose per gram tissue” value ([6]; Brain, 72 h) was 0.04 Percent injected dose per gram tissue, the “Percent injected dose per gram tissue” value ([6]; Kidney, 1.5 h) was 17.67 Percent injected dose per gram tissue and the “Percent injected dose per gram tissue” value ([6]; Kidney, 24 h) was 0.20 Percent injected dose per gram tissue. The “Percent injected dose per gram tissue” value ([6]; Kidney, 48 h) was 0.18 Percent injected dose per gram tissue, the “Percent injected dose per gram tissue” value ([6]; Kidney, 72 h) was 0.22 Percent injected dose per gram tissue and the “Percent injected dose per gram tissue” value ([6]; Liver, 1.5 h) was 11.07 Percent injected dose per gram tissue. For the same molecule, the “Percent injected dose per gram tissue” value ([6]; Liver, 24 h) was 0.24 Percent injected dose per gram tissue, the “Percent injected dose per gram tissue” value ([6]; Liver, 48 h) was 0.32 Percent injected dose per gram tissue and the “Percent injected dose per gram tissue” value ([6]; Liver, 72 h) was 0.33 Percent injected dose per gram tissue. The “Percent injected dose per gram tissue” value ([6]; OVCAR-3 tumor (IP), 1.5 h) was 20.70 Percent injected dose per gram tissue, the “Percent injected dose per gram tissue” value ([6]; OVCAR-3 tumor (IP), 24 h) was 5.66 Percent injected dose per gram tissue and the “Percent injected dose per gram tissue” value ([6]; OVCAR-3 tumor (IP), 48 h) was 5.41 Percent injected dose per gram tissue. For the same molecule, the “Percent injected dose per gram tissue” value ([6]; OVCAR-3 tumor (IP), 72 h) was 3.54 Percent injected dose per gram tissue, the “Percent injected dose per gram tissue” value ([6]; Spleen, 1.5 h) was 15.60 Percent injected dose per gram tissue and the “Percent injected dose per gram tissue” value ([6]; Spleen, 24 h) was 0.59 Percent injected dose per gram tissue. The “Percent injected dose per gram tissue” value ([6]; Spleen, 48 h) was 0.44 Percent injected dose per gram tissue, the “Percent injected dose per gram tissue” value ([6]; Spleen, 72 h) was 0.59 Percent injected dose per gram tissue and the “Percent injected dose per gram tissue” value ([6]; Uterus, 1.5 h) was 11.43 Percent injected dose per gram tissue. For the same molecule, the “Percent injected dose per gram tissue” value ([6]; Uterus, 24 h) was 0.54 Percent injected dose per gram tissue, the “Percent injected dose per gram tissue” value ([6]; Uterus, 48 h) was 0.66 Percent injected dose per gram tissue and the “Percent injected dose per gram tissue” value ([6]; Uterus, 72 h) was 0.97 Percent injected dose per gram tissue. For the same molecule, the “Percent injected dose per gram tissue” value ([6]; solid OVCAR-3 (approximately 2 mice per group), 1.5 h) was 12.94 Percent injected dose per gram tissue, the “Percent injected dose per gram tissue” value ([6]; solid OVCAR-3 (approximately 2 mice per group), 24 h) was 0.67 Percent injected dose per gram tissue and the “Percent injected dose per gram tissue” value ([6]; solid OVCAR-3 (approximately 2 mice per group), 48 h) was 0.28 Percent injected dose per gram tissue. The “Percent injected dose per gram tissue” value ([6]; solid OVCAR-3 (approximately 2 mice per group), 72 h) was 0.24 Percent injected dose per gram tissue.
